Measured values from patent US11945798B2, “Substituted aminopyridine compounds as EGFR inhibitors” (YUHAN CORPORATION, priority 2021, dated 2024).
Like-named read-outs stand apart in the source and are kept apart here.

Columns and labels:
EGFR wildtype (WT) = EGFR wildtype (WT) (Homo sapiens, UniProt P00533); assay: Biochemical EGFR kinase assay (Lance Ultra TR-FRET), wildtype
Method in brief: (§1)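 In this biochemical assay, phosphorylation after a one-hour room-temperature reaction was detected with europium-labelled anti-phosphopeptide antibody at 2 nM final concentration.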

EGFR L858R/C797S = EGFR L858R/C797S (Homo sapiens, UniProt P00533, C797S/L858R); assay: Biochemical EGFR kinase assay (Lance Ultra TR-FRET), L858R/C797S
Method in brief: as §1

EGFR L858R/T790M/C797S = EGFR L858R/T790M/C797S (Homo sapiens, UniProt P00533, C797S/L858R/T790M); assay: Biochemical EGFR kinase assay (Lance Ultra TR-FRET), L858R/T790M/C797S
Method in brief: as §1

EGFR del19/C797S = EGFR del19/C797S (Homo sapiens, UniProt P00533, C797S/DEL746-750); assay: Biochemical EGFR kinase assay (Lance Ultra TR-FRET), del19/C797S
Method in brief: as §1

EGFR del19/T790M/C797S = EGFR del19/T790M/C797S (Homo sapiens, UniProt P00533, C797S/DEL746-750/T790M); assay: Biochemical EGFR kinase assay (Lance Ultra TR-FRET), del19/T790M/C797S
Method in brief: as §1

[1] = IC50 WT (nM) 100 μM ATP, 100 μM ATP
[2] = IC50 L858R/C797S (nM) 100 μM ATP, 100 μM ATP
[3] = IC50 L858R/T790M/C797S (nM) 100 μM ATP, 100 μM ATP
[4] = IC50 del19/C797S (nM) 100 μM ATP, 100 μM ATP
[5] = IC50 del19/T790M/C797S (nM) 100 μM ATP, 100 μM ATP
[6] = Km ATP, read-out: IC50 WT (nM) Km ATP
[7] = Km ATP, read-out: IC50 del19/C797S (nM) Km ATP
[8] = Km ATP, read-out: IC50 del19/T790M/C797S (nM) Km ATP
[9] = Km ATP, read-out: IC50 L858R/C797S (nM) Km ATP
[10] = Km ATP, read-out: IC50 L858R/T790M/C797S (nM) Km ATP

Chain of EGFR L858R/C797S (P00533 25-1210 C797S/L858R): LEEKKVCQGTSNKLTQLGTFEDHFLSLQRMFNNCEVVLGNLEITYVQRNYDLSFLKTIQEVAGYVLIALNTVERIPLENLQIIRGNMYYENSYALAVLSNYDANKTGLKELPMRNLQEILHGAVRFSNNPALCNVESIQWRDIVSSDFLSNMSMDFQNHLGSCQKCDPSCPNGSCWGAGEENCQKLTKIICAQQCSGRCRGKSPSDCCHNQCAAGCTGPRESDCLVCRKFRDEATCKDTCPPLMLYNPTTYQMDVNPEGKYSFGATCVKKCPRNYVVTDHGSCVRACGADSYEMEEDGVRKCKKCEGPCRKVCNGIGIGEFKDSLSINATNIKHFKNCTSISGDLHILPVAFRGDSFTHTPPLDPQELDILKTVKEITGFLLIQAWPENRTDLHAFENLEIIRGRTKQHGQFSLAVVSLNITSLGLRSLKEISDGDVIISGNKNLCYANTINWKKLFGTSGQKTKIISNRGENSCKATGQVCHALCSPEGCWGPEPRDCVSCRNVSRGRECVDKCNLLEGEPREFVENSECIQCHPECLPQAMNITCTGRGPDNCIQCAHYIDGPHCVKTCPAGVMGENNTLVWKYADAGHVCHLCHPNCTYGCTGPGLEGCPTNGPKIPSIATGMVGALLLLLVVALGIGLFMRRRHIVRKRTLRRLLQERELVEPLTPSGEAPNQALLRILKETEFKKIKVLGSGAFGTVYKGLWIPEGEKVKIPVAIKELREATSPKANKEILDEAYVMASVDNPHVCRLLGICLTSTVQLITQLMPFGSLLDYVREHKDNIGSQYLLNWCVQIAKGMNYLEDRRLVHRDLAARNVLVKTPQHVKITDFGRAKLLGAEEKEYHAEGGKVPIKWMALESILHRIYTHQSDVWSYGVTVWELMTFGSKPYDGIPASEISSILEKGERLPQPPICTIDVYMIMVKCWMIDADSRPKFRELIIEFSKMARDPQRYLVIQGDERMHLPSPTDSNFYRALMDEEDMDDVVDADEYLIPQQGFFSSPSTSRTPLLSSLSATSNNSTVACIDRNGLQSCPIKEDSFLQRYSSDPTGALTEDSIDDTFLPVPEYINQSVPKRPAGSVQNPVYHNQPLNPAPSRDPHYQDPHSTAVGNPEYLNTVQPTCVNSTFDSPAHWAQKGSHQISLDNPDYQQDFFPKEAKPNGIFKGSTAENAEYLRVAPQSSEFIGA
Chain of EGFR del19/T790M/C797S (P00533 with tags, fused parts or gaps DEL746-750/T790M/C797S): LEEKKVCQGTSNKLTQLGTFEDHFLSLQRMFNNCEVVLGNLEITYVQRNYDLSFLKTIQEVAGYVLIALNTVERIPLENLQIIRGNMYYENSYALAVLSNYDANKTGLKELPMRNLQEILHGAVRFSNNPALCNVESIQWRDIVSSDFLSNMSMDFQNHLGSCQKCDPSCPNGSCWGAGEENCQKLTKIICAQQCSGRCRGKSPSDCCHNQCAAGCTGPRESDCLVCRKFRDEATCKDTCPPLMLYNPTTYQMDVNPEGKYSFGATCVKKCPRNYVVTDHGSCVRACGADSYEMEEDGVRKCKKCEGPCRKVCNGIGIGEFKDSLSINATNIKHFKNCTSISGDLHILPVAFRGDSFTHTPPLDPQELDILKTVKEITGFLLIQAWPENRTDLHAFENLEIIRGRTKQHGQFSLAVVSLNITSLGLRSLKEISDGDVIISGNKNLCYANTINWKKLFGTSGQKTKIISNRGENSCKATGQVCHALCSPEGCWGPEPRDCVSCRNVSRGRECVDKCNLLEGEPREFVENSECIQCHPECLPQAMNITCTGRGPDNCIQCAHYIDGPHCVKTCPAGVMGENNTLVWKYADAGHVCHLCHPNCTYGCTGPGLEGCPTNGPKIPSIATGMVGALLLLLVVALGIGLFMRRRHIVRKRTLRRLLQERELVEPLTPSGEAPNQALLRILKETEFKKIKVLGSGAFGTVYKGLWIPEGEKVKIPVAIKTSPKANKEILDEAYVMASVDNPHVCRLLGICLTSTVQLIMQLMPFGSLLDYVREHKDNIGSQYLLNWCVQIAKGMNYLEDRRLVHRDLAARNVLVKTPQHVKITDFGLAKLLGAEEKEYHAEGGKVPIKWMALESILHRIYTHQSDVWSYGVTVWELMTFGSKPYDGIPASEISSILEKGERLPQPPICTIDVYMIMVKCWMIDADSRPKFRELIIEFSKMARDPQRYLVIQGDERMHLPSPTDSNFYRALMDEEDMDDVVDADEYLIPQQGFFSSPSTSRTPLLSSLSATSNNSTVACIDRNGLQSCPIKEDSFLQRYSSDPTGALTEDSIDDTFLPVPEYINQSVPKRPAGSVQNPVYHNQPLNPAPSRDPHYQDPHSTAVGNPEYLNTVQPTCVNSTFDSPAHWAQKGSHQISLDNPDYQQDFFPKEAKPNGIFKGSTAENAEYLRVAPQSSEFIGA
Chain of EGFR wildtype (WT) (P00533 25-1210): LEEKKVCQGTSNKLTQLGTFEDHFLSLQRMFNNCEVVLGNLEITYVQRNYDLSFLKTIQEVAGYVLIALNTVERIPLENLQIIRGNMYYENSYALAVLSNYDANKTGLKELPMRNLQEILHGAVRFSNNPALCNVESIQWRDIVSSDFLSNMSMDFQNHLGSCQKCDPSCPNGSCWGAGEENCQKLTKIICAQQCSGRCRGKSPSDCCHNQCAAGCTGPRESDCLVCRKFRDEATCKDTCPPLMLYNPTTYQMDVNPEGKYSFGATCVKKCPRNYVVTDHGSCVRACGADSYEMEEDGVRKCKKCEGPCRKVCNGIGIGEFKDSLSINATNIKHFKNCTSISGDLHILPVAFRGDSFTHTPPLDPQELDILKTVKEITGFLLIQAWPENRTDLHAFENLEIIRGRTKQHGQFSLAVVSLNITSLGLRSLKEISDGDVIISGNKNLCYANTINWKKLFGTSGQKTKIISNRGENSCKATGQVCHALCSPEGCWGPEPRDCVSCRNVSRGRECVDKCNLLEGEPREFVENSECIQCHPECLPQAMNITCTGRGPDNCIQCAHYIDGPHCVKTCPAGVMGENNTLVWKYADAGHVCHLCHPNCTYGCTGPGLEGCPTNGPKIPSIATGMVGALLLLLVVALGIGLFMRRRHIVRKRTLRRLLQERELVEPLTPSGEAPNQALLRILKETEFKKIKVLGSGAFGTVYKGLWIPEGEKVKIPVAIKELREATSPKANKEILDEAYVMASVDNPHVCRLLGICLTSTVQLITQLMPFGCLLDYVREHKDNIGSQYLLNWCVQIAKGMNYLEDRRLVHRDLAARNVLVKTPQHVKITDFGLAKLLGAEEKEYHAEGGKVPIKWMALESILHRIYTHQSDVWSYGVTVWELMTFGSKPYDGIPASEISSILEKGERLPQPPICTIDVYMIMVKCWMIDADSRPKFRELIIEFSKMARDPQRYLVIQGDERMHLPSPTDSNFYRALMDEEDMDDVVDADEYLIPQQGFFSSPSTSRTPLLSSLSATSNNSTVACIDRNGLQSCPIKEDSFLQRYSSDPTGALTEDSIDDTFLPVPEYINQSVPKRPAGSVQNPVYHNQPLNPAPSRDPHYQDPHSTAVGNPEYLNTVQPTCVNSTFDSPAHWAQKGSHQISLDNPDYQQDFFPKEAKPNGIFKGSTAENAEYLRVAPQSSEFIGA
Chain of EGFR L858R/T790M/C797S (P00533 25-1210 T790M/C797S/L858R): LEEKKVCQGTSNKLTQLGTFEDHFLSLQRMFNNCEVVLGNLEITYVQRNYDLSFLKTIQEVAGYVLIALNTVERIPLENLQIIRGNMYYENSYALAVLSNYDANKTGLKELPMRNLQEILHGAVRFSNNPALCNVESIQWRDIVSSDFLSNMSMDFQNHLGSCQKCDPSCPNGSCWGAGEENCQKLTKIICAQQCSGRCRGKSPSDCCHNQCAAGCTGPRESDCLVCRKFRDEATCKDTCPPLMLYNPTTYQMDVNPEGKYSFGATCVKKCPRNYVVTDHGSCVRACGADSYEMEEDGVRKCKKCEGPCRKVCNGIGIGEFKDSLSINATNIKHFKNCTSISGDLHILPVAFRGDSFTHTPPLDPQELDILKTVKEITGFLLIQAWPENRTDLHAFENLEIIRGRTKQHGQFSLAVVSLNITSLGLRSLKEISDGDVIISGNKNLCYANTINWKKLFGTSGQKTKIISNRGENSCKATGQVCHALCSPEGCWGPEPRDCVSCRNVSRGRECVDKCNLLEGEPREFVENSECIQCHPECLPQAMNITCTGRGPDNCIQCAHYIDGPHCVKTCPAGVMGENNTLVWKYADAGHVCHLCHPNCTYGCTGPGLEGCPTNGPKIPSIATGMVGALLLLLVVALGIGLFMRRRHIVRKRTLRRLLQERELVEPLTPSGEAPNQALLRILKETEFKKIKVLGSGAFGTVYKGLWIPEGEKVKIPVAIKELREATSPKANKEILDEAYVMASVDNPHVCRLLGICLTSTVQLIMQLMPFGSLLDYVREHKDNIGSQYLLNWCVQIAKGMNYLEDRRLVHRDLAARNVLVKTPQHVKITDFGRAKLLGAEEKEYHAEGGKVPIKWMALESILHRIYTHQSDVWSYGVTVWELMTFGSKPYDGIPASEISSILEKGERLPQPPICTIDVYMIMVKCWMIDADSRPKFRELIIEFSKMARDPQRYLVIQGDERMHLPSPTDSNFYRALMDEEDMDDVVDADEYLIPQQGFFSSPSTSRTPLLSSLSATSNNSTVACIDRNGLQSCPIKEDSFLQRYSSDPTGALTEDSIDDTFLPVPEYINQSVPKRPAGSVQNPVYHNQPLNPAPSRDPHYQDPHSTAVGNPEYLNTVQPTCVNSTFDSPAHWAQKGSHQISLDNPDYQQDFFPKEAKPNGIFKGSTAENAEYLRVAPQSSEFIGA

Row | Structure (SMILES) | IC50 (EGFR wildtype (WT); [1]) | IC50 (EGFR L858R/C797S; [2]) | IC50 (EGFR L858R/T790M/C797S; [3]) | IC50 (EGFR del19/C797S; [4]) | IC50 (EGFR del19/T790M/C797S; [5]) | IC50 (EGFR wildtype (WT); [6]) | IC50 (EGFR del19/C797S; [7]) | IC50 (EGFR del19/T790M/C797S; [8]) | IC50 (EGFR L858R/C797S; [9]) | IC50 (EGFR L858R/T790M/C797S; [10])
1 | CN(C)C1CCN(CCNC2CCC(Nc3cc(Nc4ccnc(-c5cnn(S(=O)(=O)C6CC6)c5)n4)ncc3C(=O)C3CC3)CC2)CC1 (centres unmarked) [Example 57, Cyclopropyl(6-((2-(1-(cyclopropylsulfonyl)-1H-pyrazol-4-yl)pyrimidin-4-yl)amino)-4-((4-((2-(4-(dimethylamino)piperidin-1-yl)ethyl)amino)cyclohexyl)amino)pyridin-3-yl)methanone] | > 10000 nM | 10.7 nM | 1 nM | 18 nM | 0.6 nM | – | – | – | – | –
2 | CC(C)Nc1cc(Nc2ccnc(-c3cnn(S(=O)(=O)C4CC4)c3)n2)ncc1C(=O)NCCF [Example 74, 6-((2-(1-(Cyclopropylsulfonyl)-1H-pyrazol-4-yl)pyrimidin-4-yl)amino)-N-(2-fluoroethyl)-4-(isopropylamino)nicotinamide] | > 10000 nM | 430 nM | 5.7 nM | 182 nM | 4.2 nM | 393 nM | 94.6 nM | 6.3 nM | – | –
3 | CN[C@H]1CC[C@H](CNc2cc(Nc3ccnc(-c4cnn(S(=O)(=O)C5CC5)c4)n3)ncc2C(=O)C2CC2)CC1 [Example 88, Cyclopropyl(6-((2-(1-(cyclopropylsulfonyl)-1H-pyrazol-4-yl)pyrimidin-4-yl)amino)-4-((((1r,4r)-4-(methylamino)cyclohexyl)methyl)amino)pyridin-3-yl)methanone] | 3160 nM | 30.7 nM | 0.2 nM | 2.6 nM | 0.1 nM | 24.6 nM | 1.6 nM | 0.1 nM | 2.6 nM | 0.1 nM
4 | NC[C@H]1CC[C@H](CNc2cc(Nc3ccnc(-c4cnn(S(=O)(=O)C5CC5)c4)n3)ncc2C(=O)C2CC2)CC1 [Example 67, (4-((((1r,4r)-4-(Aminomethyl)cyclohexyl)methyl)amino)-6-((2-(1-(cyclopropylsulfonyl)-1H-pyrazol-4-yl)pyrimidin-4-yl)amino)pyridin-3-yl)(cyclopropyl)methanone] | – | – | – | – | – | 9.3 nM | 0.7 nM | 0.2 nM | 4.1 nM | 0.2 nM
5 | CN(C)CCN1CCC(Nc2cc(Nc3ccnc(-c4cnn(S(=O)(=O)C5CC5)c4)n3)ncc2C(=O)C2CC2)CC1 [Example 37, Cyclopropyl(6-((2-(1-(cyclopropylsulfonyl)-1H-pyrazol-4-yl)pyrimidin-4-yl)amino)-4-((1-(2-(dimethylamino)ethyl)piperidin-4-yl)amino)pyridin-3-yl)methanone] | > 10000 nM | 168 nM | 2 nM | 79.9 nM | 1.2 nM | 113 nM | 36.9 nM | 1 nM | 9.7 nM | 0.4 nM
6 | C[C@]1(O)CC[C@@H](Nc2cc(Nc3ccnc(-c4cnn(S(=O)(=O)C5CC5)c4)n3)ncc2C(=O)C(F)F)CC1 [Example 48, 1-(6-((2-(1-(Cyclopropylsulfonyl)-1H-pyrazol-4-yl)pyrimidin-4-yl)amino)-4-(((1s,4s)-4-hydroxy-4-methylcyclohexyl)amino)pyridin-3-yl)-2,2-difluoroethan-1-one] | > 10000 nM | 110 nM | 2.4 nM | 4.4 nM | 1 nM | 553 nM | 15.7 nM | 0.8 nM | 26.2 nM | 0.5 nM
7 | CN(C)C[C@H]1CC[C@H](CNc2cc(Nc3ccnc(-c4cn[nH]c4)n3)ncc2C(=O)C2CC2)CC1 [Example 59, (6-((2-(1H-Pyrazol-4-yl)pyrimidin-4-yl)amino)-4-((((1r,4r)-4-((dimethylamino)methyl)cyclohexyl)methyl)amino)pyridin-3-yl)(cyclopropyl)methanone] | – | – | – | – | – | 136 nM | 207 nM | 1.2 nM | 67.9 nM | 5.7 nM
8 | C[C@]1(O)CC[C@@H](Nc2cc(Nc3ccnc(-c4cnn(S(=O)(=O)C5CC5)c4)n3)ncc2C(=O)C2CC2)CC1 [Example 33, Cyclopropyl(6-((2-(1-(cyclopropylsulfonyl)-1H-pyrazol-4-yl)pyrimidin-4-yl)amino)-4-(((1s,4s)-4-hydroxy-4-methylcyclohexyl)amino)pyridin-3-yl)methanone] | > 10000 nM | 6.5 nM | 0.8 nM | 1.7 nM | 0.8 nM | 13.9 nM | – | 1 nM | 0.9 nM | 0.3 nM
9 | C[C@@H](CCO)Nc1cc(Nc2ccnc(-c3cnn(S(=O)(=O)C4CC4)c3)n2)ncc1C(=O)C1CC1 [Example 8, (S)-Cyclopropyl(6-((2-(1-(cyclopropylsulfonyl)-1H-pyrazol-4-yl)pyrimidin-4-yl)amino)-4-((4-hydroxybutan-2-yl)amino)pyridin-3-yl)methanone] | – | – | – | – | – | 471 nM | 61.6 nM | 0.4 nM | 292 nM | 1.4 nM
10 | O=C(N[C@H]1CC[C@H](O)CC1)c1cnc(Nc2ccnc(-c3cnn(S(=O)(=O)C4CC4)c3)n2)cc1N[C@H]1CC[C@@H](NCCF)CC1 [Example 80, 6-((2-(1-(Cyclopropylsulfonyl)-1H-pyrazol-4-yl)pyrimidin-4-yl)amino)-4-(((1s,4s)-4-((2-fluoroethyl)amino)cyclohexyl)amino)-N-((1r,4r)-4-hydroxycyclohexyl)nicotinamide] | > 10000 nM | 170 nM | 2.4 nM | 72.8 nM | 0.8 nM | – | – | – | – | –
11 | O=C(c1cnc(Nc2ccnc(-c3cnn(S(=O)(=O)C4CC4)c3)n2)cc1NC1CCC(NCCN2CCCCC2)CC1)C1CC1 (centres unmarked) [Example 56, Cyclopropyl(6-((2-(1-(cyclopropylsulfonyl)-1H-pyrazol-4-yl)pyrimidin-4-yl)amino)-4-((4-((2-(piperidin-1-yl)ethyl)amino)cyclohexyl)amino)pyridin-3-yl)methanone] | 6300 nM | 12.2 nM | 1.2 nM | 7.6 nM | 1 nM | – | – | – | – | –
